# Results as given in patent US11666589B2, “Pivarubicin and benzarubicin compositions” (Paradox Pharmaceuticals, Inc., priority 2020, dated 2023).
# Legend:
# [1] = test system: 32D.3 murine myeloid cells; experiment: Drug biotransformation analysis (HPLC of intracellular drug) in 32D.3 cells; format: in vitro ADME
# Source text: (§1) Intracellular drug was extracted and analyzed by fluorescence HPLC as described previously.
# [2] = test system: 293 embryonic human kidney cells; experiment: Drug biotransformation analysis (HPLC of intracellular drug) in 293 cells; format: in vitro ADME
# Source text: as §1
# [3] = test system: J774.2 murine macrophage-like cells; experiment: Drug biotransformation analysis (HPLC of intracellular drug) in J774.2 cells; format: in vitro ADME
# Source text: as §1
# PKCd = target: T1, PKCd (Mus musculus, UniProt P28867); experiment: PKCd translocation (cell fractionation, immunoblot); format: cell-based, murine; settings: within 4 hours of treatment with 5 μM; 32D.3 cells
# T1 construct: endogenous in cells; host or cells: 32D.3 murine myeloid cells
# T1 sequence (P28867 whole entry): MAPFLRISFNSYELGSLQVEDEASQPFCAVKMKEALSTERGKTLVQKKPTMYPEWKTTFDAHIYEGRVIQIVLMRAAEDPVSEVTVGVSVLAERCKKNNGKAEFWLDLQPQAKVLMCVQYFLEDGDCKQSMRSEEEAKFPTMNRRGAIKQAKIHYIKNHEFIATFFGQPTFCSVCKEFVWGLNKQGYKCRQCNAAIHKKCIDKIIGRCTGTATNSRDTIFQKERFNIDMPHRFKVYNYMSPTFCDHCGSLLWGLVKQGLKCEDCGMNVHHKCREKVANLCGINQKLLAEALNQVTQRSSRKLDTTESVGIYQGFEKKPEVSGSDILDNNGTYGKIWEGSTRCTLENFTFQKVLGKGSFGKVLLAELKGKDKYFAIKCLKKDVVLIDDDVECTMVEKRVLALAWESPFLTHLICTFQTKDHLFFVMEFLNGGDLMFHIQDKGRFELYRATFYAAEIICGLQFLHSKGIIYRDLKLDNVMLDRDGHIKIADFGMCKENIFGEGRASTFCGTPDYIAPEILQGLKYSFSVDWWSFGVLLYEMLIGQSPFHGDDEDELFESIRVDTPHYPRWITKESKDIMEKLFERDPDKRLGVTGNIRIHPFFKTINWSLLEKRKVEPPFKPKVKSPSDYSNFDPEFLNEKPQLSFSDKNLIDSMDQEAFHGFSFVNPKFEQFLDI
# Source text: Inhibition of PKCd activity also selectively impedes pivarubicin cytotoxicity.
# 32D.3 cells = experiment: Cell viability by trypan blue with or without rottlerin
# Method: Rottlerin treatment of cells, cell viability analysis by MTT [28] and immunoblot identification of protein expression were performed and described previously.
# FIGS. 4A-4D are charts and images from studies of pivarubicin cytotoxicity mediated through PKC-delta (PKCd) activation. For FIG. 4A, 32D.3 cells, suspended in RPMI-1640 medium/10% FCS/IL-3 at a density of 5×10^5 cells/ml, were treated with either DMSO (C) or 5 μM pivarubicin (PIV) for 4 h prior to harvesting, cell fractionation, and immunoblot analysis of PKCd as described previously. For FIG. 4B, 32D.3 cells were pretreated with 10 μM rottlerin for 2 h prior to exposure to 5 μM drug for 1 h at 37° C. Cells were pelleted and washed twice in large volumes of warm PBS, then resuspended in fresh, drug-free medium containing 10 μM rottlerin at 5×10^5 cells/ml and incubated at 37° C. for up to 72 h. At indicated times, aliquots of cells were withdrawn and stained with trypan blue. Viable cells were scored based on the exclusion of stain and gross morphological appearance. For the results shown in FIGS. 4C and 4D, 32D.3 cells were transfected with PKCd siRNA or scrambled siRNA as described in the Materials and Methods section under “Chemicals and Biologicals”. The cells were then assessed for pivarubicin cytotoxicity as for FIG. 4A. Each datum point represents the mean and standard error of at least three independent determinations, each consisting of 300-500 cells per count, when possible.
# [4] = test system: human LNCaP prostate cancer cells; experiment: Pivarubicin cytotoxicity after PKCd siRNA transfection; format: cell-based; settings: PKCd-siRNA-transfected cells
# [5] = test system: LNCaP human prostate cancer cells transfected with Bcl-2; experiment: MTT cytotoxicity in Bcl-2 transfected LNCaP cells; format: cell-based; settings: 5 μM for 1 h, 72 h drug-free
# Method: (§2) For the results shown in FIG. 5A, LNCaP cells transfected with Bcl-2 expression vector were assessed for doxorubicin or pivarubicin cytotoxicity, compared to cells transfected with empty vectors. Cells were exposed to 5 μM drug for 1 h, washed, and further incubated for 72 h in drug-free medium. Viability was determined by the MTT assay. For the results shown in FIG. 5B, pivarubicin cytotoxicity in HL-60 cells transfected with Bcr-Abl or Bcl-XL expression vectors were assessed for doxorubicin or pivarubicin cytotoxicity and compared as described for FIG. 5A.
# [6] = test system: HL-60 cells transfected with Bcr-Abl; experiment: Cytotoxicity in Bcr-Abl transfected HL-60 cells; format: cell-based, human
# Method: as §2
# [7] = Cardiotoxicity assessment (Bertazzoli Test), tumor-bearing mice; format: in vivo, female NSG mice; settings: for hearts with Severity 0 / hearts with Severity 0.5 / hearts with Severity 1.0: 2 i.p. doses; for hearts with Total Score 0 / hearts with Total Score 0.5 / hearts with Total Score 1.0: severity×extension
# Method: Drug-mediated cardiotoxicity was assessed in both non-tumor-bearing female NSG mice administered three doses (i.p. every two weeks) of the MTD of doxorubicin, pivarubicin or the equivalent volume of solvent only and in hearts excised from tumor-bearing mice treated as described in Results section. Body weights were monitored every three days. Two weeks after final dose, mice were sacrificed, and hearts were excised immediately. Intact ventricular myocardia were fixed for a minimum of 24 h in 10% formalin phosphate buffered to pH 7.0 and then carefully sectioned into 2 to 3-mm thick slices before being dehydrated in graded ethanol and cleared in xylene prior to embedding in paraffin at 58° C. Sections (4-μm thick) were mounted on glass slides, deparaffinized in xylene, and stained in the routine fashion with Mayer's hematoxylin and eosin. Slide labels were blinded to evaluator. Myocardial lesions were evaluated by routine light microscopy and scored with regard to the severity and extent of damage:
# Degree of severity (S)—0, no evidence of histological changes; 1, sarcoplasmic microvacuolization and/or inclusions (interstitial or cellular edema); 2, as in 1 plus sarcoplasmic macrovacuolization or atrophia, necrosis, fibrosis, endocardial lesions, and thrombi.
# Degree of extension (E)—0, no lesions; 0.5, less than 10 single altered myocytes on the whole-heart section; 1, scattered single altered myocytes; 2, scattered small groups of altered myocytes; 3, spread small groups of altered myocytes; 4, confluent groups of altered myocytes; 5, most of cells damaged.
# Total cardiotoxicity score/animal=S×E and mean total score (MTS) for each treatment group was MTS=(S×E)/number of animals.
# Given the limitation of doxorubicin in the treatment of tumors due to irreversible cardiotoxicity due to the total cumulative dose of drug, it was next determined whether pivarubicin produced evidence of cardiotoxic damage at the total dose of drug administered to NSG mice that produced tumor growth inhibition. Histological evidence of ventricular damage in hearts of drug- or vehicle-treated NSG mice were assessed using the Bertazzoli Test, originally designed to assess doxorubicin-induced cardiomyocyte damage. Analyses were performed on hearts from two independent experiments: 1) hearts that were excised at dosing endpoint from tumor-bearing NSG mice receiving 2 i.p. doses of pivarubicin at 16.5 mg/kg, doxorubicin at 1.4 mg/kg then 1.6 mg/kg and an equivalent volume of vehicle alone and 2) non-tumor-bearing female NSG mice receiving 3 i.p. doses of pivarubicin at 16.5 mg/kg, doxorubicin at 1.4 mg/kg then 1.6 mg/kg×2 and an equivalent volume of vehicle alone at 2-week intervals.
# Non-tumor-bearing female NSG mice at 9 weeks old were treated with either 16.5 mg/kg pivarubicin (PIV), 1.4 mg/kg (1×) and 1.6 mg/kg (2×) doxorubicin and equivalent volumes of vehicle i.p. at 2-week intervals. Tumor-bearing female NSG mouse treatment was as described for the “Cardiotoxicity Assessment method” method. At endpoint, hearts were excised and prepared for histological analysis as described above. Severity and severity×extension (total score) are defined in Materials and Methods.
# [8] = without rottlerin, doxorubicin at IC50 concentration
SMILES,"% Parent Compound ([1]; 32D.3, 1 hr, 1 μM drug, 37° C.) [%]","% Parent Compound ([1]; 32D.3, 8 hr (1 hr drug + 7 hours drug-free medium)) [%]","% Parent Compound ([2]; 293, 1 hr, 1 μM drug, 37° C.) [%]","% Parent Compound ([2]; 293, 8 hr (1 hr drug + 7 hours drug-free medium)) [%]","% Parent Compound ([3]; J774.2, 1 hr, 1 μM drug, 37° C.) [%]","% Parent Compound ([3]; J774.2, 8 hr (1 hr drug + 7 hours drug-free medium)) [%]",PKCd translocation (PKCd),time to 50% cell kill (32D.3 cells; co-treatment with 10 μM rottlerin) [h],time to 50% cell kill (32D.3 cells; [8]) [h],increase in concentration required to achieve 50% cell kill [4] [fold],effect of Bcl-2 overexpression on rate of drug-induced apoptosis [5],effect of Bcr-Abl on cytotoxicity [6],hearts with Severity 0 [7],hearts with Severity 0.5 [7],hearts with Severity 1.0 [7],hearts with Total Score 0 [7],hearts with Total Score 0.5 [7],hearts with Total Score 1.0 [7],effect of rottlerin co-treatment on cytotoxicity (32D.3 cells; 10 μM rottlerin)
"COc1cccc2c1C(=O)c1c(O)c3c(c(O)c1C2=O)C[C@@](O)(C(=O)COC(=O)C(C)(C)C)C[C@@H]3O[C@H]1C[C@H](NCc2ccccc2)[C@H](O)[C@H](C)O1 [Pivarubicin, N-Benzyladriamycin-14-pivalate]",100,96,98,94,90,90,translocates from the cytosolic to the membrane fraction,24,≤ 6,2.5,do not impede,no inhibitory effect,9/10,0/10,1/10,9/10,0/10,1/10,
"COc1cccc2c1C(=O)c1c(O)c3c(c(O)c1C2=O)C[C@@](O)(C(=O)CO)C[C@@H]3O[C@H]1C[C@H](N)[C@H](O)[C@H](C)O1 [Doxorubicin, reference compound]",,,,,,,,,24,,,,7/9,0/9,2/9,8/9,1/9,0/9,does not alter
